Data on four molecules can be found in patent publication US4190674A, “3-Fluoro-N-cyclopropylcinnamide” (Burroughs Wellcome Co., priority 1977, dated 1980).

Common to all, as to format: in vivo
The subject of one assay is muscle tone. As to the kind of experiment: Muscle tone in mammals (general statement). The settings on record: in words.
Another assay relates to rat. As to the kind of experiment: Maximal Electroschock Test (MES), rat. Conditions: ip. From the text:
(§1) 1. Maximal Electroschock Test (MES) in mice, a method described by Woodbury and Davenport, Arch int. Pharmacodyn. Ther. 92, P. 97-107 (1952).
(§2) In the MES pharmacological test referred to hereinbefore, the stated compounds had the given ED50 when administered i.p. to mice or rats as appropriate.

Another assay has as its system mice. As to the kind of experiment: Maximal Electroschock Test (MES) in mice. Conditions: Mus musculus, ip.
Source text: as §1, §2

Assay [1] deals with polysynaptic reflex contractions. As to the kind of experiment: Muscle Relaxant Activity: polysynaptic reflex contractions in the cat. The settings on record: oral dose of from 100-150 mg/kg. The procedure:
(§3) The effect of trans 3-fluoro-N-cyclopropylcinnamamide as a centrally acting muscle relaxant was determined using a method based on that described in Berger, F. M. & Bradley, W. (Br. J. Pharmac. Chemother, (1946), 1, 265-272) and Crankshaw, D. P. & Raper, C. (Br. J. Pharmac. (1970), 38, 148-156).

The subject of assay [2] is monosynaptic kneed-jerk reflex. As to the kind of experiment: Muscle Relaxant Activity: monosynaptic knee-jerk reflex in the cat. The settings on record: oral dose of from 100-150 mg/kg. The procedure:
as §3

For `O=C(/C=C/c1cccc(F)c1)NC1CC1` [formula (IA), 3-fluoro-N-cyclopropylcinnamamide], in the assay on muscle tone, the muscle tone entry is listed as “decreases muscle tone in mammals”.

On to `O=C(/C=C/c1cccc(C(F)(F)F)c1)NC1CC1` [Trans 3-Trifluoromethyl-N-Cyclopropylcinnamamide], for which the 50% effective dose (ED50) (commonly the dose at which the effect has come halfway, by size or by number of responders) with rat amounted to 56 mg/kg.

For `O=C(/C=C/c1cccc(F)c1)NC1CC1` [trans 3-fluoro-N-cyclopropylcinnamamide, Trans 3-Fluoro-N-cyclopropylcinnamamide], the median effective dose (ED50) with mice was 60 mg/kg. The polysynaptic reflex contractions result in assay [1] is given as “suppressed polysynaptic reflex contractions”. In addition, in assay [2], the monosynaptic kneed-jerk reflex result was “without affecting the monosynaptic kneed-jerk reflex”.

For `O=C(/C=C/c1cccc(Br)c1)NC1CC1` [trans 3-bromo-N-cyclopropylcinnamamide, Trans 3-Bromo-N-cyclopropylcinnamamide], the median effective dose (ED50) with mice was 77 mg/kg.
